{"source": "patent US7319094B2", "about": "“Increased and sustained in vivo gene expression using a nucleic acid, histone and amphipathic compound composition” (Rhode Island Hospital, priority 2001, dated 2008)", "format_in_all_cases": "cell-based, human", "key": {"phospho-Erk MAPK": {"test_system": "phospho-Erk MAPK", "test": "Growth factor stimulated phospho-Erk MAPK, Western blot", "description": "(§1) Standard Western blot assays wew used to measure cellular levels of p53, Bcl-2, p21/Waf1, phospho-tau, tau, c-fos, NTP, and activated (phosphorylated) forms of Erk mitogen activated protein (MAP) kinase, amino-terminal c-jun-activated kinase (pJNK), and p38/HOG1. Immunoprecipitation followed by Western blot analysis was used to measure p85 subunit associated with IRS1. For Western blot analysis of p53 Bcl-2, phospho-tau, tau, c-fos, and NTP, the cells were lysed in ice cold radioimmunoprecipitation assay (RIPA) buffer supplemented with protease and phosphatase inhibitors. For the immunoprecipitation studies, Western blot analysis of phospho-Erk, pJNK, and p38, and the PI3 kinase assays, the cells were harvested in Triton lysis buffer supplemented with protease and phosphatase inhibitors. Protein concentrations were measured using the BCA assay (Pierce, Rockford, Ill.). Samples containing 60 μg of protein were fractionated by sodium dodecyl sulfate polyacrylamide gel electrophoresis (SDS-PAGE), then transferred to PVDF membranes, and analyzed by Western immunoblotting. Immunoreactivity was detected with horseradish peroxidase conjugated secondary IgG and PicoWest enhanced chemiluminescence reagents (Pierce Chemical Company, Rockford, Ill.). CAT activity was measured using known methods.\nThe potential mechanisms by which the differential effects of insulin, IGF1 and PDGF might occur were explored by examining pathways, which mediate PNET2 neuronal apoptosis and neuritic sprouting. […] Western blot analysis was performed with cell lysates obtained from cultures stimulated with insulin, IGF1, or PDGF for 0-30 minutes or 24 hours with equivalent protein loading (60 μg/sample). The membranes were probed using antibodies to Erk, phospho-Erk, Jun, and phospho-JNK. […] In contrast, after 24 hours of AD7c-NTP gene induction and growth factor stimulation, high levels of phospho-Erk MAPK were detected in the IGF-1 and PDGF-stimulated cultures, but not in the serum-starved or insulin-stimulated cultures. […] In contrast, the levels of c-fos transcription factor were equally expressed after 24 hours IPTG induction of AD7c-NTP expression and either serum starvation or stimulation with insulin, IGF1 or PDGF."}, "phospho-tau": {"test_system": "phospho-tau", "test": "phospho-tau expression, Western blot / MICE assay", "conditions": "PNET2 cells induced to express AD7c-NTP; relative to PDGF-stimulated cultures", "description": "as §1, with “For the immunoprecipitation studies, Western blot analysis of phospho-Erk, pJNK, and p38, and the PI3 kinase assays, the cells were harvested in Triton lysis buffer supplemented with protease and phosphatase inhibitors.” left out\n(§2) The MICE assay is known in the art (e.g., as described by de la Monte et al., 1999, Biotechniques 26:107301076). […] Immunoreactivity was detected using horseradish peroxidase conjugated secondary antibody (Pierce, Rockford, Ill.) and the TMB soluble peroxidase substrate (Pierce, Rockford, Ill.). […]"}, "[1]": {"test_system": "PNET2 cells induced to express AD7c-NTP", "test": "Cell morphology by phase contrast microscopy", "conditions": "IPTG-induced AD7c-NTP; insulin 50 nM, IGF-1 5 ng/ml, NGF 2.5 ng/ml, PDGF 5 ng/ml; 24-48 hours", "procedure": "To examine the effects of different growth factors on AD7c-NTP expression (and over-expression), the cells were serum-starved for 16 hours, after which IPTG (1-5 mM) was added to the medium. Four hours later, the cells were stimulated with insulin (50 nM), IGF-1 (5 ng/ml), NGF ([…]), or platelet-derived growth factor (PDGF; 5 ng/ml) for 24-72 hours. The cells were analyzed for morphological changes, viability, AD7c-NTP immunoreactivity, and expression of pro-apoptosis genes, survival genes, and phospho-tau.\nCells were serum-starved for 24 hours. However, since several hours of IPTG stimulation were required to induce AD7c-NTP gene expression or CAT activity, IPTG (3 mM) was added to the cultures after 16 hours of serum-starvation, i.e. 8 hours prior to growth factor stimulation. The cells were stimulated with insulin (50 nM), IGF-1 (5 ng/ml), NGF (2.5 ng/ml), or PDGF (5 ng/ml) and examined by phase contrast microscopy 24-48 hours later. PNET2 cells could be maintained in serum-free medium for 5 to 7 days with insulin, IGF-1, NGF, or PDGF as the only growth stimulus. In addition, each of these growth factors supports DNA synthesis and promotes modest outgrowth of multipolar neurites in PNET2 cells."}, "[2]": {"test_system": "nitric oxide synthase-3 (NOS-3)", "test": "NOS-3 expression, Western blot", "conditions": "PNET2 cells induced to express AD7c-NTP; relative to PDGF-stimulated cultures", "description": "as §1, with “methods. […]” for “methods.”"}, "p21/Waf1": {"test_system": "p21/Waf1", "test": "p21/Waf1 expression, Western blot / MICE assay", "conditions": "PNET2 cells induced to express AD7c-NTP, growth factor stimulated", "description": "as §1, with “For the immunoprecipitation studies, Western blot analysis of phospho-Erk, pJNK, and p38, and the PI3 kinase assays, the cells were harvested in Triton lysis buffer supplemented with protease and phosphatase inhibitors.” left out\nas §2"}, "Bcl-2": {"test_system": "Bcl-2", "test": "Bcl-2 expression, Western blot / MICE assay", "conditions": "PNET2 cells induced to express AD7c-NTP, growth factor stimulated", "description": "as §1\nThe MICE assay is known in the art (e.g., as described by de la Monte et al., 1999, Biotechniques 26:107301076). The assay is a rapid and sensitive method for quantifying immunoreactivity in 96-well micro-cultures and combines the advantages of the enzyme-linked immunosorbant assay with immunocytochemical staining to permit sensitive in situ quantification of protein expression with values normalized to cell density. […] Immunoreactivity was detected using horseradish peroxidase conjugated secondary antibody (Pierce, Rockford, Ill.) and the TMB soluble peroxidase substrate (Pierce, Rockford, Ill.). Absorbances were measured at 450 nm using a Spectracount plate reader. […]"}}, "note": "“Also recorded” adds a separate entry of the source.", "data": [{"substance": "insulin: Human insulin purchased from Novagen", "values": [{"measurement": "phospho-Erk MAPK level, short-term stimulation", "setting": "phospho-Erk MAPK; 0-30 minutes stimulation", "result": "increased levels"}, {"measurement": "phospho-Erk MAPK level, 24 hours", "setting": "phospho-Erk MAPK; 24 hours of AD7c-NTP induction and growth factor stimulation", "result": "reduced levels"}, {"measurement": "phospho-tau level", "setting": "phospho-tau", "result": "increased levels"}, {"measurement": "cell morphology", "setting": "[1]", "result": "neurite retraction, cell rounding and increased cell death"}, {"measurement": "NOS-3 level", "setting": "[2]", "result": "increased levels"}, {"measurement": "p21/Waf1 level", "setting": "p21/Waf1", "result": "increased levels of p21/Waf1; also recorded: significantly increased levels"}, {"measurement": "Bcl-2 level", "setting": "Bcl-2", "result": "virtually undetectable Bcl-2 expression; also recorded: reduced levels"}]}]}
